Results on one compound are retold here after article PMC8777799, “Anti-α-Glucosidase and Antiglycation Activities of α-Mangostin and New Xanthenone Derivatives: Enzymatic Kinetics and Mechanistic Insights through In Vitro Studies” (Molecules, 2022).

This test deals with α-glucosidase. Put plainly: pNPG colorimetric enzyme kinetics (Lineweaver–Burk; IC50 […]), supported by fluorescence quenching and circular dichroism. It counts as biochemical, Saccharomyces cerevisiae. (In general: Circular dichroism is the unequal absorption of left and right circularly polarised light.)

In general, Ki refers to the equilibrium dissociation constant of an inhibitor or competing ligand from its target. A higher Ki goes with a looser hold on the target. `COc1c(O)cc2oc3cc(O)c(CC=C(C)C)c(O)c3c(=O)c2c1CC=C(C)C` [α-mangostin, 1,3,6-trihydroxy-7-methoxy-2,8-bis(3-methylbut-2-en-1-yl)-9H-xanthen-9-one] displayed a Ki of 30.3 µM.
